We go through ten molecules from patent US4073942A, “Halo-substituted hydroxybenzyl-amines as secretolytic agents” (Boehringer Ingelheim GmbH, priority 1972, dated 1978).

Counter-ions that a name gives are not always drawn.

Holding throughout (assay type): in vivo
Series [1] in a line: Acute toxicity after oral application, 72 hours observation. The settings on record: mouse, in vivo, po. As for the experimental part: (§1) The acute toxicity was determined on groups of 5 white mice after oral application of a dose ranging between 500 mgm/kg and 5000 mgm/kg per animal (time of observation: 72 hours).
The subject of the next series is white mice. The series is described as above. The conditions noted are these: white mice, 72 hours. The method, then: as §1
Series [2] relates to stomach ulcers in female rats. As to the kind of experiment: Anti-ulcerogenic activity: acetic acid-induced stomach ulcers. The conditions noted are these: three weeks. The method, then:
The standard pharmacological test method of […] et al, Jap. J. Pharmac. 19, 418 (1969), was used. The abdominal cavity of female rats having a body weight of 220 to 350 gm under ether anesthesia was opened, and the stomach was exposed. […] The controls received only pulverized rat food. After three weeks, the animals were sacrificed, their stomachs were excised, and the size of the ulcer was determined by measuring its length and width.

The test system of series [3] is coughs induced by citric acid spray in awake white rats. Briefly: Antitussive activity: change in number of citric acid-induced coughs after oral application. The settings on record: 50 mgm/kg oral, compared to control group.
Series [4] relates to secretion in anesthetized rabbits or guinea pigs. Briefly: Expectorant effect: secretolytic activity, increase of secretion within 2 hours after oral application. The conditions noted are these: 8 mgm/kg oral. The method, then:
The increase of secretion within 2 hours was calculated before and after application of the substance see Perry and Boyd in Pharmakol. exp. Therap. 73, 65 (1941)!.

The test system of the next series is cats. As to the kind of experiment: Circulatory effect in cats under chloralose-urethane narcosis after intravenous application. The settings on record: 3 animals per dose. The method, then:
The circulatory effect in cats was determined under chloralose-urethane narcosis after intravenous application of the test compound (3 animals per dose).

Setting [5] is: white mice, 72 hours observation.

By LD50 is commonly meant the dose expected to kill half of the subjects tested. A lower LD50 goes with greater toxicity. Take `Cl.Oc1c(Br)cc(CN[C@H]2CCC[C@@H](O)C2)cc1Br` (relative stereo) [C, N-(cis-3'-hydroxy-cyclohexyl)-3,5-dibromo-4-hydroxy-benzylamine hydrochloride]: in series [1] (setting [5]), the LD50 at 72 h was over 1000 mg/kg. For the same molecule, in the series with white mice (1000 mgm/kg p.o.), the animals dead is recorded as 0 of 5. Further, the “% change in ulcer size versus controls” value is -11% in series [2] (50 mgm/kg p.o. in daily food) and -29% in series [2] (100 mgm/kg p.o. in daily food). For the same molecule, in series [3], the “Average change in the number of coughs, in per cent, 30 minutes after oral application of 50 mgm/kg” value is given as -35%.

`Oc1c(Br)cccc1CN[C@H]1CC[C@H](O)CC1` [D, N-(trans-4'-hydroxy-cyclohexyl)-3-bromo-2-hydroxy-benzylamine]: in series [1] (setting [5]), the median lethal dose (LD50) at 72 h was over 500 mg/kg. Moreover, the animals dead with white mice (500 mgm/kg p.o.) is recorded as 0 of 5. For the same molecule, in series [4], the change in vivo at 8 mg/kg was found to be 66%.

On to `CCC(C)(C)NCc1cc(Br)cc(Br)c1O.Cl` [Compound I, N-tert.pentyl-3,5-dibromo-2-hydroxy-benzylamine hydrochloride], for which, in series [1] (setting [5]), the LD50 at 72 h is over 5000 mg/kg. The animals dead with white mice (5000 mgm/kg p.o.) is 0 of 5. In addition, the change in vivo at 8 mg/kg in series [4] was 80%.

The molecule `CC(CO)(CO)NCc1cc(Cl)c(O)c(Cl)c1` [H, N-(dihydroxy-tert.butyl)-3,5-dichloro-4-hydroxy-benzylamine hydrochloride] returned a change in vivo at 8 mg/kg in series [4] of 88%.

Molecule `CC(CO)(CO)NCc1cc(Br)cc(Br)c1O` [G, N-(dihydroxy-tert.butyl)-3,5-dibromo-2-hydroxy-benzylamine hydrochloride] had a 50% lethal dose (LD50) at 72 h in series [1] (setting [5]) of over 5000 mg/kg. Further, in the series on white mice (5000 mgm/kg p.o.), the animals dead is 0 of 5. The molecule also had a change in vivo at 8 mg/kg in series [4] of 88%.

Regarding `CCN(Cc1cc(Br)c(O)c(Br)c1)C1CCCCC1` [B, N-ethyl-N-cyclohexyl-3,5-dibromo-4-hydroxy-benzylamine], the LD50 at 72 h in series [1] (setting [5]) is over 1000 mg/kg. Also, the animals dead in the series with white mice (1000 mgm/kg p.o.) was 0 of 5. In addition, the “Circulatory effect in cats” value with cats (8 mgm/kg) is recorded as “no change”. The same molecule had a change in vivo at 8 mg/kg in series [4] of 87%. The “Average change in the number of coughs, in per cent, 30 minutes after oral application of 50 mgm/kg” value in series [3] was -34%.

`Oc1c(Br)cc(Br)cc1CN[C@H]1CC[C@H](O)CC1` [F, N-(trans-4'-hydroxy-cyclohexyl)-3,5-dibromo-2-hydroxy-benzylamine] showed an LD50 at 72 h in series [1] (setting [5]) of over 5000 mg/kg. The animals dead in the series with white mice (5000 mgm/kg p.o.) is 0 of 5. The change in vivo at 8 mg/kg in series [4] worked out at 70%. Also, the “% change in ulcer size versus controls” value in series [2] (50 mgm/kg p.o. in daily food) is -59%; in series [2] (100 mgm/kg p.o. in daily food), -78%.

The molecule `CN(Cc1cc(Cl)c(O)c(Br)c1)C1CCCCC1.Cl` [E, n-methyl-N-cyclohexyl-3-bromo-5-chloro-4-hydroxy-benzylamine hydrochloride] returned a 50% lethal dose (LD50) at 72 h in series [1] (setting [5]) of over 500 mg/kg. Further, the animals dead in the series on white mice (500 mgm/kg p.o.) is 0 of 5. In series [4], this molecule gave a change in vivo at 8 mg/kg of 65%.

In series [1], `CCN(Cc1cc(Br)cc(Br)c1O)C1CCCCC1` [Compound A, N-ethyl-N-cyclohexyl-(3,5-dibromo-2-hydroxy)-benzylamine hydrochloride] had an LD50 at 72 h of over 1000 mg/kg. The animals dead in the series with white mice (1000 mgm/kg p.o.) was 0 of 5. Further, in the series on cats (4 mgm/kg), the “Circulatory effect in cats” value is reported as “no change”. Also, the change in vivo at 8 mg/kg in series [4] was 81%. For the same molecule, the “% change in ulcer size versus controls” value in series [2] (50 mgm/kg p.o. in daily food) is listed as -39%; in series [2] (100 mgm/kg p.o. in daily food), -54%. In addition, in series [3], the “Average change in the number of coughs, in per cent, 30 minutes after oral application of 50 mgm/kg” value is -38%.

`CN(Cc1cc(Br)cc(Br)c1O)C1CCCCC1` [J, N-methyl-N-cyclohexyl-(3,5-dibromo-2-hydroxy)-benzylamine hydrochloride] gave an LD50 at 72 h in series [1] (setting [5]) of over 5000 mg/kg. The animals dead with white mice (5000 mgm/kg p.o.) is recorded as 1 of 5. The “% change in ulcer size versus controls” value in series [2] (50 mgm/kg p.o. in daily food) is recorded as -73%; in series [2] (100 mgm/kg p.o. in daily food), -82%.
